Experimental data taken from patent US8828993B2, “Psychotropic agents having glutamate NMDA activity” (Ramot At Tel-Aviv University Ltd., priority 2006, dated 2014).
“Also recorded” adds a separate entry of the source. Where a name gives a salt, the structure may show the parent alone.

Tests used:
Format in all cases: in vivo
mice [1] = test: Elevated plus maze
Source text: The elevated plus maze is a widely used method to test anxiety in rodents (Pellow, et al., Pharmacol. Biochem. Behav., 24, 525-529 (1986)). The apparatus was made of wood and painted black, with two opposing open arms and two opposite enclosed arms of the same size. The arms were attached to a central square shaped in a plus sign. The whole apparatus was placed 50 cm above the floor. Anxious animals refrain from entering the open arm and prefer the closed arm.
In a typical experiment, Balb/c male mice were administered orally with 10 and 20 mg/kg of Compound 1 or Compound 6 and with a vehicle or with diazepam (1 mg/kg) administered per os (p.o.) 90 minutes before they were placed in the center of the maze. The frequency to the open aims, the time spent in the different arms, the velocity and number of rearings of the animals in each zone were recorded (Noldus).
Male Balb/c mice were used. Animals were transferred to the behavior room 24 hr before the experiment. Compound 1 or diazepam were administered orally 90 minutes before testing. Each treatment group included 5 animals.
Male Balb/c mice were used. Animals were transferred to the behavior room 24 hr before the experiment. Compound 6 (3, 9, or 27 mg/kg) or vehicle were administered orally 90 minutes before testing. Each treatment group included 5 animals.

mice [2] = test: Open field exploratory locomotor activity; settings: for sedative effect: mice, i.p.
Source text: Open Field Exploratory Locomotor Activity
The procedure consists of subjecting an animal, usually a rodent, to an unknown large environment from which escape is prevented by surrounding walls. The open field test is now one of the most popular procedures in animal psychology (Crawley, et al., Exploratory behavior models of anxiety in mice, Neurosci Biobehav Rev 9 (1985), pp. 37-44). The procedure involves forced confrontation of a rodent with the situation. The animal is placed in the center or close to the walls of the apparatus and the following behavioral items are recorded for a period ranging from 5 to 20 minutes: horizontal locomotion, and frequency of rearing or leaning. In such a situation, rodents spontaneously prefer the periphery of the apparatus to activity in the central parts of the open field. Increase in time spent in the central part as well as of the ratio central/total locomotion or decrease of the latency to enter the central part are indications of anxiolysis.
In a typical test, an individual mouse was placed in a novel environment of a square open field (50×50 cm), the floor of which had been divided into 3 areas, as shown below. The area within 10 cm of the chamber walls was termed the periphery. […] One hour after drug administration, the animal was placed in the same corner of the field. The animal behavior in the open field was recorded by videotaping for 20-60 minutes and analyzed subsequently digitally using the Noldus software for animal behavior. The measurements included velocity, distance moved, frequency of visits to the central area, number of rearing events.
The effect of Compound 1 on the behavior of mice in the open field and the dose-dependent effect following i.p administration were evaluated. Naïve male Mice (Balb/c, Harlan Israel) were used. The animals, divided 3 to 5 animals per group, were administered with Compound 1 (12.5, 25, 50, 75 and 100 mg/kg) 1 hr prior to placing each in an open field. Mice were monitored for 1 hr (every 5 minutes) using the Noldus system, and their distance moved, velocity, time of immobility and number of rearings was recorded.
The effect of Compound 6 on the behavior of mice in the open field was also examined. Naïve male mice (Balb/c, Harlan Israel) were used. Animals (6 per group) were administered with Compound 6 (12.5, 25 and 50 mg/kg, i.p.) 1 hr prior to placing each in the open field. Mice were followed for 1 hr (every 5 minutes) using the Noldus system, and their distance moved, velocity, time of immobility and number of rearings was recorded.
The effect of oral administration of Compound 1 in the open field was tested by orally administering to male ICR mice varying amounts of Compound 1 (5, 10 and 20 mg/kg) or vehicle. Animals were placed in the open field 1 hr after drug administration and horizontal and vertical behavior was recorded for 20 minutes.
The dose-dependent effect of Compound 3 administered i.p. in the open field was also tested. Naïve male mice (Balb/c, Harlan Israel) were used. Animals were administered with Compound 3 (12.5, 25 and 50 mg/kg, i.p., 6 per group) 1 hr prior to placing each in the open field. Mice were followed for 1 hr (every 5 minutes) using the Noldus system, and their distance moved, velocity, time of immobility and number of rearings was recorded.
Animals were administered orally with Compound 1 (5, 10 and 20 mg/kg) or with a vehicle. Animals were placed in the open field 1 hr after drug administration and animal track was registered for 20 minutes. The time spent in the center (zone 3) and the frequency to the center were indicators of anxiety.

[3] = test system: MK-801-induced hyperactivity in mice; test: MK-801-induced hyperactivity in open field
Description: MK-801-Induced Stereotype Behavior in Rats (in Open Field)—
MK-801 is an analogue of PCP which inhibits NMDA receptors and elicits hyperlocomotion and stereotypic behavior in rodents and is used as an animal model of schizophrenia (Stephen, et al., Topiramate antagonizes MK-801 in an animal model of schizophrenia, Eur. J. Pharmacol. 449, 2002, 121-5). For experimentation, naïve Balb/c mice were used. MK-801 (0.15 mg/kg i.p) was administered 40 minutes after Compound 1 (or any one of the other compounds of the invention) or a vehicle, and 20 minutes prior to placing the mouse in an open field.
Animals placed in the open field were followed for 60 minutes and their distance moved, velocity, duration of immobility, and number of rearing events were registered using the Noldus system.
As stated above, MK-801 inhibits NMDA receptors and elicits hyperlocomotion. Therefore, where an antagonism of the hyperactivity-induced by the MK-801 is observed upon administration of a compound of the invention, it is an indication as to the positive modulation of the NMDA activity. In other words, such a compound may be considered as useful in the treatment of schizophrenia.
The effect of Compound 6 on the distance moved in Balb/c mice exposed to MK-801 ([…]) i.p. and to Compound 6 (up to 12.5 mg/kg, i.p.) administered 1 hr prior to MK-801 was also tested.
As stated above, MK-801 (an NMDA receptor antagonist) is a widely accepted animal model for schizophrenia. The experiment was conducted with Balb/c male mice (Harlan Il), 6 per group. Compound 1 (50 mg/kg) was administered i.p. (1 hr before experimentation), to mice alone or combined with MK-801 (0.15 mg/kg, i.p.) administered 20 minutes prior to placing the mice individually in an open field for 60 minutes. The hyper-active behavior expressed by hyperlocomotion, velocity, strong mobility, number of rearing was evaluated using the Noldus system, each point represents the mean+/−6 determinations.

[4] = Balb/c mice, 12.5, 25 and 50 mg/kg i.p.
[5] = male Balb/c mice, 20 mg/kg oral
[6] = male Balb/c mice, oral, diazepam 1 mg/kg
[7] = male ICR mice, oral 10 and 20 mg/kg, 1 hr after administration, 20 minutes

## CNC(CN1CCN(C2=Nc3ccccc3Nc3sc(C)cc32)CC1)C(=O)OC (stereo not drawn) [Compound 6, 2-N-methylamino-3-[4-(2-methyl-10H-thieno[2,3-b][1.5]benzodiazepin-4-yl)-piperazin-1-yl]propionic acid, methyl ester trihydrochloride salt]
Mice [1]; male Balb/c mice, 3, 9 and 27 mg/kg orally
  time spent in the closed arm: did not significantly affect
Mice [1]; male Balb/c mice, 3, 9 and 27 mg/kg orally, 90 minutes before testing, trihydrochloride salt
  time spent in the open arms: more time; also recorded: dose-dependently increase
Mice [1]; male Balb/c mice, 3, 9 and 27 mg/kg orally, trihydrochloride salt
  time spent in the center: less and decrease
Mice [2]; [4]
  duration of “not moving” periods: increased
  horizontal (distance) and vertical motility (number of rearings): inhibition
Mice [2]; Balb/c mice, 12.5, 25 and 50 mg/kg i.p., 1 hr prior
  motility (distance moved and velocity): dose dependent decrease
Mice [2]; Balb/c mice, up to 50 mg/kg i.p.
  effect on motility (distance moved and velocity): mild
Mice [2]
  sedative effect: mild sedative effect
[3]; Balb/c mice, up to 12.5 mg/kg i.p. 1 hr prior to MK-801 (15 mg/kg) i.p.
  motility (distance moved) of MK-801 treated mice: did not cause a consistent dose dependent effect

## COC(=O)C(N)CN1CCN(C2=Nc3ccccc3Nc3sc(C)cc32)CC1 (stereo not drawn) [Compound 1, 2-amino-3-[4-(2-methyl-10H-thieno[2,3-b][1,5]benzodiazepin-4-yl)-piperazin-1-yl]-propionic acid, methyl ester hydrochloride salt]
Mice [1]; 20 mg/kg
  anxiolytic activity (overall conclusion): anxiolytic activity which resembles diazepam
Mice [1]; [5]
  time spent in the center: increased
  time spent in the closed and the open arm: did not significantly affect
Mice [1]; male Balb/c mice, 20 mg/kg oral, 90 minutes before testing
  frequency to the open arm and the center: frequented significantly more
Mice [1]; [6]
  number of rearings in the open arm: increased number of rearings
  velocity: not
Mice [2]; Balb/c mice, 12.5 mg/kg i.p.
  horizontal and vertical motility parameters: did not modify significantly
  rearing frequency: tended to increase
Mice [2]; Balb/c mice, doses higher than 50 mg/kg i.p.
  sedative effect / motility: marked sedative effect
Mice [2]; Balb/c mice, doses up to 50 mg/kg i.p.
  horizontal and vertical motility: mild inhibition
Mice [2]; Balb/c mice, i.p. 12.5, 25, 50, 75 and 100 mg/kg, 1 hr prior, monitored 1 hr
  horizontal and vertical motility: dose dependent decrease
Mice [2]; male ICR mice, 20 mg/kg p.o., 1 hr before, 20 minutes
  anxiety parameters (time spent in the center and frequency to the center): anxiolytic activity
Mice [2]; [7]
  horizontal behavior (velocity and distance moved): slightly decreased
  vertical behavior (number of rearings): increased
Mice [2]
  sedative effect: mild sedative effect
[3]; Balb/c male mice, 50 mg/kg i.p.
  vertical motility (number of rearings), compound alone: markedly suppressed
[3]; Balb/c male mice, 50 mg/kg i.p. combined with MK-801 0.15 mg/kg i.p.
  inhibition of rearings presented by MK-801: increased
[3]; Balb/c male mice, 50 mg/kg i.p., MK-801 0.15 mg/kg i.p., open field 60 minutes
  basal and MK-801-induced stimulation of horizontal motility (distance moved, velocity, strong mobility): clear cut decrease
[3]; mice, 30 and 50 mg/kg i.p.
  hyperlocomotion effect of MK-801: inhibited in a dose related manner
  increased frequency to the center of animals treated with MK-801: did not modify
  time spent in the center (zone 3), MK-801 treated: increased
